# Test results taken from publication PMC10535268, “Design, Synthesis, and Evaluation of Novel Indole Hybrid Chalcones and Their Antiproliferative and Antioxidant Activity” (Molecules, 2023).
# What was measured:
# [1] = system: MDA-MB-231; assay: MTT antiproliferative assay, MDA-MB-231; format: cell-based, human; conditions: MDA-MB-231, 72 h incubation, mean ± SD of three independent experiments
# [2] = system: Bj-5ta; assay: MTT cytotoxicity assay, non-cancer Bj-5ta; format: cell-based, human; conditions: 72 h incubation, mean ± SD of three independent experiments
# [3] = system: MCF-7; assay: MTT antiproliferative assay, MCF-7; format: cell-based, human; conditions: MCF-7, 72 h incubation, mean ± SD of three independent experiments
# [4] = ABTS radical scavenging activity; conditions: sample 1 mM, 30 min, gallic acid equivalents, mean (±SD), triplicate
# Excerpt: (§1) Table 3 Antioxidant activity.
# [5] = system: Hela; assay: MTT antiproliferative assay, HeLa; format: cell-based, human; conditions: 72 h incubation, mean ± SD of three independent experiments
# Description: Table 2 IC50 (μM) ± SD of tested compounds in different cell lines after 72 h incubation. | column: Cell Line, IC50 (µM) ± SD / Hela
# [6] = system: HCT116; assay: MTT antiproliferative assay, HCT116; format: cell-based, human; conditions: HCT116, 72 h incubation, mean ± SD of three independent experiments
# [7] = Ferric reducing antioxidant power (FRAP); conditions: sample 1 mM, 30 min, gallic acid equivalents, mean (±SD), triplicate
# Excerpt: as §1
# [8] = system: Jurkat; assay: MTT antiproliferative assay, Jurkat; format: cell-based, human; conditions: 72 h incubation, mean ± SD of three independent experiments
# [9] = DPPH radical scavenging activity; conditions: sample 1 mM, 30 min, gallic acid equivalents, mean (±SD), triplicate
# [10] = system: MCF-10A; assay: MTT cytotoxicity assay, non-cancer MCF-10A; format: cell-based, human; conditions: 72 h incubation, mean ± SD of three independent experiments
# [11] = system: normal human liver cell line (L02); design: method as in Lagu et al. 19; conditions: ref Lagu et al. 19; cited from earlier work
# [12] = design: method as in Lagu et al. 19; conditions: compared to standard drugs; ref Lagu et al. 19; cited from earlier work
# [13] = system: breast cancer cells; conditions: flow cytometry, Western blot, fluorescence microscopy; cited from earlier work
Structure (SMILES),IC50 ([1]; Homo sapiens) [µM],"IC50 ([3]; Homo sapiens, MCF7, 72 h) [µM]","IC50 ([5]; Homo sapiens, HeLa, 72 h) [µM]","IC50 ([6]; Homo sapiens, HCT-116, 72 h) [µM]",IC50 ([8]; Homo sapiens) [µM],melting point [°C],IC50 ([2]; Homo sapiens) [µM],ABTS [4],FRAP [7],DPPH [9],"IC50 ([10]; Homo sapiens, MCF-10A, 72 h) [µM]",IC50 [6] [µM],further results
"Cn1cc(/C=C/C(=O)c2ccccc2O)c2ccccc21 [13b, (2E)-1-(2-hydroxyphenyl)-3-(1-methyl-1H-indol-3-yl)prop-2-en-1-one]",82 ± 3.2,29.7 ± 2.3,42.8 ± 2.5,34.7 ± 0.2,> 100,205 to 207,> 100,116.8 (±5.8) µmol GAE/mmol,41.2 (±0.7) µmol GAE/mmol,7.6 (±3.8) µmol GAE/mmol,> 100,–,–
"O=C(/C=C/c1c[nH]c2ccccc12)c1ccc(C(F)(F)F)cc1 [12a, (2E)-3-(1H-indol-3-yl)-1-(4-trifluoromethylphenyl) prop-2-en-1-one]",> 100,43.4,68.1 ± 3.3,59.1 ± 1.1,> 100,195 to 197,> 100,–,–,–,> 100,–,cytotoxicity on normal human liver cell line (L02) [11]: without showing cytotoxicity; IC50 [3]: 43.3 ± 0.6 µM; antimicrobial activity [12]: greatest antimicrobial activity
"Cn1cc(/C=C/C(=O)c2ccc(C(F)(F)F)cc2)c2ccccc21 [12b, (2E)-3-(1-methyl-1H-indol-3-yl)-1-(4-trifluoromethylphenyl) prop-2-en-1-one]",> 100,20.5 ± 5.1,32.8 ± 0.4,12.3 ± 0.2,> 100,182 to 184,> 100,–,–,–,> 100,–,–
"COc1cc(/C=C/C(=O)c2c[nH]c3ccccc23)ccc1O [19a, (2E)-3-(4-hydroxy-3-methoxyphenyl)-1-(1H-indol-3-yl)prop-2-en-1-one]",45.3 ± 0.5,43.1 ± 1.6,25.5 ± 1.6,62.7 ± 2.9,34 ± 0.3,200 to 203,66.6 ± 0.1,564.7 (±74.5) µmol GAE/mmol,307.2 (±11.9) µmol GAE/mmol,223.5 (±11.2) µmol GAE/mmol,24.7 ± 2.8,35.3 ± 0.6,IC50 [5]: 41.4 ± 2.5 µM; IC50 [10]: 40.2 ± 1.2 µM
"CCCOc1[nH]c2ccccc2c1/C=C/C(=O)c1ccccc1F [11f, (2E)-1-(2″-Fluorophenyl)-3-(2′-propoxy-1′H-indol-3′-yl)prop-2-en-1-one]",–,–,–,–,–,–,–,175.1 (±10.4) µmol GAE/mmol,183.5 (±0.9) µmol GAE/mmol,227.3 (±11.0) µmol GAE/mmol,–,34.4 ± 1.1,"mode of cell death [13]: induce cell cycle arrest in the G2/M phase and apoptosis; IC50 [1]: 34 ± 3 µM; IC50 [3]: 37.3 ± 1.5 µM; IC50 [5]: 45.3 ± 0.7 µM; IC50 [8]: 37.7 ± 1.1 µM; IC50 [10]: > 100 µM; IC50 (µM) ± SD, MCF-10A [10]: minimal effect"
"COn1cc(/C=C/C(=O)c2ccccc2O)c2ccccc21 [13c, (2E)-1-(2-hydroxyphenyl)-3-(1-methoxy-1H-indol-3-yl)prop-2-en-1-one]",> 100,53.4 ± 2.5,73.9 ± 3.4,54 ± 2.2,42 ± 1.8,139 to 140,> 100,214.6 (±28.4) µmol GAE/mmol,43.4 (±1.8) µmol GAE/mmol,30.3 (±15.4) µmol GAE/mmol,> 100,–,–
"N.N.[Cl][Pt][Cl] [Cisplatin, reference compound]",–,–,–,–,–,–,–,–,–,–,–,15.3 ± 1.6,IC50 [1]: 17.4 ± 0.2 µM; IC50 [2]: 37.9 ± 1.9 µM; IC50 [3]: 24.6 ± 2.1 µM; IC50 [5]: 6.5 ± 0.5 µM; IC50 [8]: 6.3 ± 0.4 µM; IC50 [10]: 25.9 ± 2.1 µM
"COn1cc(C(=O)/C=C/c2ccc(O)c(O)c2)c2ccccc21 [18c, (2E)-3-(3,4-dihydroxyphenyl)-1-(1-methoxy-1H-indol-3-yl)prop-2-en-1-one]",> 100,> 100,> 100,18.5,8 ± 1.4,206 to 209,> 100,298.1 (±21.0) µmol GAE/mmol,432.0 (±21.4) µmol GAE/mmol,551.1 (±14.9) µmol GAE/mmol,> 100,18.2 ± 2.9,"IC50 (µM) ± SD, Bj-5ta [2]: no toxicity; IC50 (µM) ± SD, MCF-10A [10]: no toxicity"

# More lines, main results first:
IC50 ([1]; Homo sapiens) [µM],"IC50 ([3]; Homo sapiens, MCF7, 72 h) [µM]","IC50 ([5]; Homo sapiens, HeLa, 72 h) [µM]","IC50 ([6]; Homo sapiens, HCT-116, 72 h) [µM]",IC50 ([8]; Homo sapiens) [µM],melting point [°C],Structure (SMILES),IC50 ([2]; Homo sapiens) [µM],ABTS [4],FRAP [7],DPPH [9],"IC50 ([10]; Homo sapiens, MCF-10A, 72 h) [µM]",IC50 [6] [µM],further results
92.7 ± 1.8,44.7 ± 2.6,39.6 ± 3.5,40.5 ± 3.1,25.9 ± 2.4,179.5 to 181,"O=C(/C=C/c1c[nH]c2ccccc12)c1ccccc1O [13a, (2E)-1-(2-hydroxyphenyl)-3-(1H-indol-3-yl)prop-2-en-1-one]",81.5 ± 0.2,292.4 (±12.4) µmol GAE/mmol,125.2 (±9.4) µmol GAE/mmol,14.2 (±0.4) µmol GAE/mmol,55.4 ± 3.6,–,–
82.2 ± 3.1,52.7 ± 2.6,34.6 ± 0.3,34.5 ± 0.7,7.3 ± 0.1,182 to 184,"COn1cc(/C=C/C(=O)c2ccc(O)cc2)c2ccccc21 [14c, (2E)-1-(4-hydroxyphenyl)-3-(1-methoxy-1H-indol-3-yl)prop-2-en-1-one]",76.4 ± 1.7,75.9 (±5.3) µmol GAE/mmol,42.0 (±2.0) µmol GAE/mmol,21.1 (±5.8) µmol GAE/mmol,59 ± 0.2,–,–
81.3 ± 1.2,86 ± 3.5,98 ± 2.8,55.3 ± 1.7,39.3 ± 1.2,113 to 115,"COn1cc(/C=C/C(=O)c2ccc(C(F)(F)F)cc2)c2ccccc21 [12c, (2E)-3-(1-methoxy-1H-indol-3-yl)-1-(4-trifluoromethylphenyl) prop-2-en-1-one]",> 100,–,–,–,38.4 ± 3.1,–,–
66 ± 2.5,42.2 ± 0.7,39.9 ± 2.6,36.8 ± 0.5,33.9 ± 2.5,218,"O=C(/C=C/c1c[nH]c2ccccc12)c1ccc(O)cc1 [14a, (2E)-1-(4-hydroxyphenyl)-3-(1H-indol-3-yl)prop-2-en-1-one]",61 ± 0.6,194.8 (±21.4) µmol GAE/mmol,105.5 (±3.4) µmol GAE/mmol,12.3 (±2.3) µmol GAE/mmol,51.5 ± 1.7,–,–
> 100,82.3 ± 1.8,93 ± 2.6,49.3 ± 1.3,> 100,244,"Cn1cc(/C=C/C(=O)c2ccc(O)cc2)c2ccccc21 [14b, (2E)-1-(4-hydroxyphenyl)-3-(1-methyl-1H-indol-3-yl)prop-2-en-1-one]",> 100,84.6 (±2.7) µmol GAE/mmol,114.3 (±4.2) µmol GAE/mmol,7.3 (±3.1) µmol GAE/mmol,54 ± 2.1,–,–
